Experimental data: ChEMBL document CHEMBL1201862, “PubChem BioAssay data set” (2004)
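Compound exposure: 48 hours, 5 concentrations, 96-well plates. GI50 = concentration required for 50% inhibition of growth.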 Calls of active or inactive are those of the source. Cut-off read from the data, not from the text of the source: active = GI50 up to about 1.1 µM and inactive = higher.

How the values were obtained:
Test in all cases: NCI anticancer screen, dose series, 48 h
HT-29 = test system: HT-29
COLO 205 = test system: COLO 205
RXF 393 = test system: RXF 393
MCF7 = test system: MCF7
KM12 = test system: KM12
LOX IMVI = test system: LOX IMVI
CAKI-1 = test system: CAKI-1
UACC-62 = test system: UACC-62
ACHN = test system: ACHN
UO-31 = test system: UO-31
HOP-62 = test system: HOP-62
SF-268 = test system: SF-268
786-0 = test system: 786-0
OVCAR-8 = test system: OVCAR-8
MDA-MB-231 = test system: MDA-MB-231
Hs-578T = test system: Hs-578T
A549 = test system: A549
OVCAR-5 = test system: OVCAR-5
IGROV-1 = test system: IGROV-1
M14 = test system: M14
SK-MEL-5 = test system: SK-MEL-5
MDA-N = test system: MDA-N
NCI/ADR-RES = test system: NCI/ADR-RES
HCC 2998 = test system: HCC 2998
BT-549 = test system: BT-549
NCI-H23 = test system: NCI-H23
EKVX = test system: EKVX
DU-145 = test system: DU-145
SF-295 = test system: SF-295
SF-539 = test system: SF-539
SK-OV-3 = test system: SK-OV-3
PC-3 = test system: PC-3
HCT-15 = test system: HCT-15
OVCAR-3 = test system: OVCAR-3
NCI-H522 = test system: NCI-H522
NCI-H226 = test system: NCI-H226
TK-10 = test system: TK-10
Malme-3M = test system: Malme-3M
HCT-116 = test system: HCT-116
UACC-257 = test system: UACC-257
NCI-H460 = test system: NCI-H460
SNB-19 = test system: SNB-19
U-251 = test system: U-251
SR = test system: SR
MDA-MB-435 = test system: MDA-MB-435
OVCAR-4 = test system: OVCAR-4
T47D = test system: T47D
MOLT-4 = test system: MOLT-4
A498 = test system: A498
HL-60 = test system: HL-60
SK-MEL-28 = test system: SK-MEL-28
SK-MEL-2 = test system: SK-MEL-2
K562 = test system: K562
CCRF-CEM = test system: CCRF-CEM
RPMI-8226 = test system: RPMI-8226
SW-620 = test system: SW-620
SN12C = test system: SN12C
HOP-92 = test system: HOP-92

O=P(O)(O)C(N=C(Nc1ccccc1)Nc1ccccc1)P(=O)(O)O
GI50 (HT-29): > 100 µM (inactive) | GI50 (COLO 205): > 100 µM (inactive) | GI50 (RXF 393): > 100 µM (inactive) | GI50 (MCF7): > 100 µM (inactive) | GI50 (KM12): > 100 µM (inactive) | GI50 (LOX IMVI): > 100 µM (inactive) | GI50 (CAKI-1): > 100 µM (inactive) | GI50 (UACC-62): > 100 µM (inactive) | GI50 (ACHN): > 100 µM (inactive) | GI50 (UO-31): > 100 µM (inactive) | GI50 (HOP-62): > 100 µM (inactive) | GI50 (SF-268): > 100 µM (inactive) | GI50 (786-0): > 100 µM (inactive) | GI50 (OVCAR-8): > 100 µM (inactive) | GI50 (MDA-MB-231): > 100 µM (inactive) | GI50 (Hs-578T): > 100 µM (inactive) | GI50 (A549): > 100 µM (inactive) | GI50 (OVCAR-5): > 100 µM (inactive) | GI50 (IGROV-1): > 100 µM (inactive) | GI50 (M14): > 100 µM (inactive) | GI50 (SK-MEL-5): > 100 µM (inactive) | GI50 (MDA-N): > 100 µM (inactive) | GI50 (NCI/ADR-RES): > 100 µM (inactive) | GI50 (HCC 2998): > 100 µM (inactive) | GI50 (BT-549): > 100 µM (inactive) | GI50 (NCI-H23): > 100 µM (inactive) | GI50 (EKVX): > 100 µM (inactive) | GI50 (DU-145): > 100 µM (inactive) | GI50 (SF-295): > 100 µM (inactive) | GI50 (SF-539): > 100 µM (inactive) | GI50 (SK-OV-3): > 100 µM (inactive) | GI50 (PC-3): > 100 µM (inactive) | GI50 (HCT-15): > 100 µM | GI50 (OVCAR-3): > 100 µM (inactive) | GI50 (NCI-H522): > 100 µM (inactive) | GI50 (NCI-H226): > 100 µM (inactive) | GI50 (TK-10): > 100 µM (inactive) | GI50 (Malme-3M): > 100 µM (inactive) | GI50 (HCT-116): > 100 µM (inactive) | GI50 (UACC-257): > 100 µM (inactive) | GI50 (NCI-H460): > 100 µM (inactive) | GI50 (SNB-19): > 100 µM (inactive)

CCCCCCc1cc2cc(C(=O)Nc3cccc(F)c3)c(=N)oc2cc1O
GI50 (HT-29): 17.9 µM (inactive) | GI50 (U-251): 1.97 µM (inactive) | GI50 (COLO 205): 14.6 µM (inactive) | GI50 (MCF7): 3.19 µM (inactive) | GI50 (KM12): 2.71 µM (inactive) | GI50 (SR): 2.17 µM (inactive) | GI50 (LOX IMVI): 1.67 µM (inactive) | GI50 (CAKI-1): 2.9 µM (inactive) | GI50 (UACC-62): 1.94 µM (inactive) | GI50 (ACHN): 3.16 µM (inactive) | GI50 (UO-31): 2.73 µM (inactive) | GI50 (HOP-62): 4.57 µM (inactive) | GI50 (SF-268): 2.32 µM (inactive) | GI50 (MDA-MB-435): 2.4 µM (inactive) | GI50 (786-0): 3.28 µM (inactive) | GI50 (OVCAR-8): 1.59 µM (inactive) | GI50 (Hs-578T): 2.21 µM (inactive) | GI50 (A549): 3.27 µM (inactive) | GI50 (OVCAR-5): 3.6 µM (inactive) | GI50 (IGROV-1): 1.42 µM (inactive) | GI50 (M14): 3.15 µM (inactive) | GI50 (SK-MEL-5): 1.4 µM (inactive) | GI50 (MDA-N): 3.14 µM (inactive) | GI50 (OVCAR-4): 2.78 µM (inactive) | GI50 (NCI/ADR-RES): 2.35 µM (inactive) | GI50 (T47D): 2.04 µM (inactive) | GI50 (HCC 2998): 3.19 µM (inactive) | GI50 (BT-549): 2.63 µM (inactive) | GI50 (NCI-H23): 2.12 µM (inactive) | GI50 (EKVX): 2.34 µM (inactive) | GI50 (DU-145): 3.56 µM (inactive) | GI50 (SF-295): 3.2 µM (inactive) | GI50 (SF-539): 3.26 µM (inactive) | GI50 (SK-OV-3): 3.37 µM (inactive) | GI50 (MOLT-4): 1.95 µM (inactive) | GI50 (A498): 3.02 µM (inactive) | GI50 (PC-3): 3.21 µM (inactive) | GI50 (HCT-15): 2.31 µM | GI50 (OVCAR-3): 4.19 µM (inactive) | GI50 (NCI-H522): 1.59 µM (inactive) | GI50 (HL-60): 2.36 µM (inactive) | GI50 (SK-MEL-28): 2.67 µM (inactive) | GI50 (SK-MEL-2): 2.16 µM (inactive) | GI50 (K562): 1.15 µM (inactive) | GI50 (Malme-3M): 2.31 µM (inactive) | GI50 (HCT-116): 2.86 µM (inactive) | GI50 (CCRF-CEM): 1.63 µM (inactive) | GI50 (RPMI-8226): 1.62 µM (inactive) | GI50 (UACC-257): 2.99 µM (inactive) | GI50 (NCI-H460): 3.19 µM (inactive) | GI50 (SNB-19): 3.55 µM (inactive) | GI50 (SW-620): 3.39 µM (inactive)

COc1ccc2c3c1O[C@H]1C(OC)C=CC4C(C2)N(Cc2cccs2)CCC341 (stereo partly specified)
GI50 (HT-29): 69.7 µM (inactive) | GI50 (SR): 75.5 µM (inactive) | GI50 (LOX IMVI): > 100 µM (inactive) | GI50 (CAKI-1): > 100 µM (inactive) | GI50 (UACC-62): > 10 µM (inactive) | GI50 (ACHN): > 10 µM (inactive) | GI50 (UO-31): > 100 µM (inactive) | GI50 (HOP-62): > 100 µM (inactive) | GI50 (SF-268): > 100 µM (inactive) | GI50 (MDA-MB-435): 41.5 µM (inactive) | GI50 (786-0): > 100 µM (inactive) | GI50 (OVCAR-8): 77.4 µM (inactive) | GI50 (SN12C): > 100 µM (inactive) | GI50 (Hs-578T): > 100 µM (inactive) | GI50 (A549): 53.8 µM (inactive) | GI50 (OVCAR-5): > 100 µM (inactive) | GI50 (IGROV-1): > 100 µM (inactive) | GI50 (M14): 70.6 µM (inactive) | GI50 (MDA-N): 60 µM (inactive) | GI50 (NCI/ADR-RES): 33.7 µM (inactive) | GI50 (HCC 2998): > 100 µM (inactive) | GI50 (BT-549): 40.1 µM (inactive) | GI50 (NCI-H23): 38.8 µM (inactive) | GI50 (EKVX): 88.3 µM (inactive) | GI50 (SF-295): 61 µM (inactive) | GI50 (SK-OV-3): > 100 µM (inactive) | GI50 (MOLT-4): > 100 µM (inactive) | GI50 (HOP-92): > 100 µM (inactive) | GI50 (HCT-15): 55.2 µM | GI50 (OVCAR-3): 45.4 µM (inactive) | GI50 (NCI-H522): > 100 µM (inactive) | GI50 (HL-60): 24 µM (inactive) | GI50 (TK-10): 92.5 µM (inactive) | GI50 (K562): 51.6 µM (inactive) | GI50 (Malme-3M): > 100 µM (inactive) | GI50 (HCT-116): 49.2 µM (inactive) | GI50 (CCRF-CEM): 49.7 µM (inactive) | GI50 (RPMI-8226): 62.1 µM (inactive) | GI50 (UACC-257): 44.4 µM (inactive) | GI50 (NCI-H460): > 100 µM (inactive) | GI50 (SNB-19): > 100 µM (inactive) | GI50 (SW-620): > 100 µM (inactive)
